Source: the NIST ThermoML archive (doi:10.1016/j.jct.2007.06.014)
Numbers after ± are expanded uncertainties.

Assay: xn = mol fraction of the nth substance listed
Details: Liquid, Bellows volumetry

Work on `CCCC` [butane] + CCC yielded a mass density (360 K, 20000 kPa, x2 = 0.5021) of 507.83 ± 0.92 kg/m3, a mass density (360 K, 20000 kPa, x2 = 0.7308) of 488.73 ± 0.88 kg/m3 and a mass density (360 K, 30000 kPa, x2 = 0.2729) of 542.33 ± 0.98 kg/m3. For the same compound, the mass density (360 K, 30000 kPa, x2 = 0.5021) was 527.21 ± 0.95 kg/m3, the mass density (360 K, 30000 kPa, x2 = 0.7308) was 509.86 ± 0.92 kg/m3 and the mass density (360 K, 40000 kPa, x2 = 0.2729) was 556.62 ± 1 kg/m3. It also gave a mass density (360 K, 40000 kPa, x2 = 0.5021) of 542.25 ± 0.98 kg/m3, a mass density (360 K, 40000 kPa, x2 = 0.7308) of 526.15 ± 0.95 kg/m3 and a mass density (360 K, 50000 kPa, x2 = 0.2729) of 568.47 ± 1 kg/m3. For the same compound, the mass density (360 K, 50000 kPa, x2 = 0.5021) was 554.89 ± 1 kg/m3, the mass density (360 K, 50000 kPa, x2 = 0.7308) was 539.49 ± 0.97 kg/m3 and the mass density (360 K, 60000 kPa, x2 = 0.2729) was 578.91 ± 1 kg/m3. The mass density (360 K, 60000 kPa, x2 = 0.5021) was 565.84 ± 1 kg/m3, the mass density (360 K, 60000 kPa, x2 = 0.7308) was 550.83 ± 0.99 kg/m3 and the mass density (360 K, 70000 kPa, x2 = 0.2729) was 588.2 ± 1.1 kg/m3. For the same compound, the mass density (360 K, 70000 kPa, x2 = 0.5021) was 575.48 ± 1 kg/m3, the mass density (360 K, 70000 kPa, x2 = 0.7308) was 561.04 ± 1 kg/m3 and the mass density (360 K, 80000 kPa, x2 = 0.2729) was 596.65 ± 1.1 kg/m3. For the same compound, the mass density (360 K, 80000 kPa, x2 = 0.5021) was 584.07 ± 1.1 kg/m3, the mass density (360 K, 80000 kPa, x2 = 0.7308) was 570.01 ± 1 kg/m3 and the mass density (360 K, 90000 kPa, x2 = 0.2729) was 604.5 ± 1.1 kg/m3. For the same compound, the mass density (360 K, 90000 kPa, x2 = 0.5021) was 592.03 ± 1.1 kg/m3, the mass density (360 K, 90000 kPa, x2 = 0.7308) was 578.24 ± 1 kg/m3 and the mass density (360 K, 100000 kPa, x2 = 0.2729) was 611.65 ± 1.1 kg/m3. The mass density (360 K, 100000 kPa, x2 = 0.5021) was 598.96 ± 1.1 kg/m3, the mass density (360 K, 100000 kPa, x2 = 0.7308) was 585.56 ± 1.1 kg/m3 and the mass density (360 K, 120000 kPa, x2 = 0.2729) was 624.31 ± 1.1 kg/m3. It also gave a mass density (360 K, 120000 kPa, x2 = 0.5021) of 612.34 ± 1.1 kg/m3, a mass density (360 K, 120000 kPa, x2 = 0.7308) of 599.05 ± 1.1 kg/m3 and a mass density (360 K, 140000 kPa, x2 = 0.2729) of 635.59 ± 1.1 kg/m3. For the same compound, the mass density (360 K, 140000 kPa, x2 = 0.5021) was 623.77 ± 1.1 kg/m3, the mass density (360 K, 140000 kPa, x2 = 0.7308) was 610.8 ± 1.1 kg/m3 and the mass density (360 K, 160000 kPa, x2 = 0.2729) was 645.73 ± 1.2 kg/m3. For the same compound, the mass density (360 K, 160000 kPa, x2 = 0.5021) was 634.07 ± 1.1 kg/m3, the mass density (360 K, 160000 kPa, x2 = 0.7308) was 621.39 ± 1.1 kg/m3 and the mass density (360 K, 180000 kPa, x2 = 0.2729) was 654.77 ± 1.2 kg/m3. It also gave a mass density (360 K, 180000 kPa, x2 = 0.5021) of 643.46 ± 1.2 kg/m3, a mass density (360 K, 180000 kPa, x2 = 0.7308) of 630.95 ± 1.1 kg/m3 and a mass density (360 K, 200000 kPa, x2 = 0.2729) of 663.07 ± 1.2 kg/m3. For the same compound, the mass density (360 K, 200000 kPa, x2 = 0.5021) was 652.2 ± 1.2 kg/m3, the mass density (360 K, 200000 kPa, x2 = 0.7308) was 639.82 ± 1.1 kg/m3 and the mass density (380 K, 5000 kPa, x2 = 0.5021) was 415.53 ± 0.76 kg/m3. It also gave a mass density (380 K, 10000 kPa, x2 = 0.5021) of 449.59 ± 0.81 kg/m3, a mass density (380 K, 20000 kPa, x2 = 0.5021) of 485.35 ± 0.88 kg/m3 and a mass density (380 K, 30000 kPa, x2 = 0.5021) of 508.03 ± 0.92 kg/m3. The mass density (380 K, 40000 kPa, x2 = 0.5021) was 525.24 ± 0.95 kg/m3, the mass density (380 K, 50000 kPa, x2 = 0.5021) was 539.26 ± 0.97 kg/m3 and the mass density (380 K, 60000 kPa, x2 = 0.5021) was 551.17 ± 0.99 kg/m3. It also gave a mass density (380 K, 70000 kPa, x2 = 0.5021) of 561.44 ± 1 kg/m3, a mass density (380 K, 80000 kPa, x2 = 0.5021) of 570.85 ± 1 kg/m3 and a mass density (380 K, 90000 kPa, x2 = 0.5021) of 579.23 ± 1 kg/m3. For the same compound, the mass density (380 K, 100000 kPa, x2 = 0.5021) was 587 ± 1.1 kg/m3, the mass density (380 K, 120000 kPa, x2 = 0.5021) was 600.73 ± 1.1 kg/m3 and the mass density (380 K, 140000 kPa, x2 = 0.5021) was 612.71 ± 1.1 kg/m3. The mass density (380 K, 160000 kPa, x2 = 0.5021) was 623.67 ± 1.1 kg/m3, the mass density (380 K, 180000 kPa, x2 = 0.5021) was 633.32 ± 1.1 kg/m3 and the mass density (380 K, 200000 kPa, x2 = 0.5021) was 642.49 ± 1.2 kg/m3. It also gave a mass density (400 K, 5000 kPa, x2 = 0.2729) of 398.7 ± 0.73 kg/m3, a mass density (400 K, 10000 kPa, x2 = 0.2729) of 441.29 ± 0.8 kg/m3 and a mass density (400 K, 10000 kPa, x2 = 0.5021) of 415.12 ± 0.76 kg/m3. The mass density (400 K, 10000 kPa, x2 = 0.7308) was 383.18 ± 0.7 kg/m3, the mass density (400 K, 20000 kPa, x2 = 0.2729) was 481.03 ± 0.87 kg/m3 and the mass density (400 K, 20000 kPa, x2 = 0.5021) was 462.03 ± 0.84 kg/m3. The mass density (400 K, 20000 kPa, x2 = 0.7308) was 440.67 ± 0.8 kg/m3, the mass density (400 K, 30000 kPa, x2 = 0.2729) was 505.41 ± 0.91 kg/m3 and the mass density (400 K, 30000 kPa, x2 = 0.5021) was 488.88 ± 0.88 kg/m3. The mass density (400 K, 30000 kPa, x2 = 0.7308) was 470.45 ± 0.85 kg/m3, the mass density (400 K, 40000 kPa, x2 = 0.2729) was 523.61 ± 0.94 kg/m3 and the mass density (400 K, 40000 kPa, x2 = 0.5021) was 508.28 ± 0.92 kg/m3. It also gave a mass density (400 K, 40000 kPa, x2 = 0.7308) of 491.38 ± 0.89 kg/m3, a mass density (400 K, 50000 kPa, x2 = 0.2729) of 538.25 ± 0.97 kg/m3 and a mass density (400 K, 50000 kPa, x2 = 0.5021) of 523.78 ± 0.94 kg/m3. It also gave a mass density (400 K, 50000 kPa, x2 = 0.7308) of 507.84 ± 0.92 kg/m3, a mass density (400 K, 60000 kPa, x2 = 0.2729) of 550.71 ± 0.99 kg/m3 and a mass density (400 K, 60000 kPa, x2 = 0.5021) of 536.84 ± 0.97 kg/m3. The mass density (400 K, 60000 kPa, x2 = 0.7308) was 521.54 ± 0.94 kg/m3, the mass density (400 K, 70000 kPa, x2 = 0.2729) was 561.45 ± 1 kg/m3 and the mass density (400 K, 70000 kPa, x2 = 0.5021) was 548.1 ± 0.99 kg/m3. It also gave a mass density (400 K, 70000 kPa, x2 = 0.7308) of 533.25 ± 0.96 kg/m3 and a mass density (400 K, 80000 kPa, x2 = 0.2729) of 571.06 ± 1 kg/m3.
